The record followed here is ChEMBL document CHEMBL5385907, “Proline-Hinged α-Helical Peptides Sensitize Gram-Positive Antibiotics, Expanding Their Physicochemical Properties to Be Used as Gram-Negative Antibiotics” (J Med Chem, 2024).

Data set [1] concerns Escherichia coli. In words: Antibacterial activity against Escherichia coli ATCC 25922 assessed as inhibition of bacterial growth incubated for 18 hrs by two fold serial dilution assay. Format: functional.
A short description of data set [2]: Toxicity in male Sprague-Dawley rat assessed as reduction in body weight at 40 mg/kg,iv administration observed on day 14 relative to control. Format: organism-based. Details: scale not given: the % may be the effect or the level left. The settings on record: in vivo, 336 h, time 14 day.
Data set [3] has as its system Escherichia coli. Put plainly: Antibacterial activity against Escherichia coli ATCC 25922 assessed as fold increase in bacterial growth inhibition incubated for 1 hr by propidium iodide staining based fluorescence assay. It is filed as functional.
The nature of data set [4]: AUClast in Sprague-Dawley rat at 3 mg/kg,iv administration measured upto 24 hr by LC-MS/MS analysis. It is filed as ADME, organism-based. Details: time < 24 hrs, dose 3 mg/kg, route iv. The settings on record: in vivo.
Data set [5] can be described thus: Toxicity in male Sprague-Dawley rat assessed as no observed adverse effect level at iv administration and observed on day 14. Format: organism-based. The settings on record: in vivo, time 14 day.
The nature of data set [6]: Clearance in CD1 mouse at 3 mg/kg,iv administration measured upto 1 hr by LC-MS/MS analysis. It is filed as ADME, organism-based. The note with it: in vivo.
Data set [7] in a line: Volume of distribution in Sprague-Dawley rat at 3 mg/kg,iv administration measured upto 24 hr by LC-MS/MS analysis. Format: ADME, organism-based. The note with it: in vivo.
For data set [8], the system named is Cell membrane. In words: Induction of outer membrane permeabilization in Escherichia coli ATCC 25922 assessed as increase in fluorescence by measuring fold change by NPN-dye based fluorescence analysis. Format: subcellular.
The nature of data set [9]: Clearance in CD1 mouse at 10 mg/kg,iv administration measured upto 1 hr by LC-MS/MS analysis. The note with it: in vivo. It is filed as ADME, organism-based.
Data set [10] in a line: Hydrophobicity of the compound assessed as retention time by reversed-phase HPLC analysis. Format: physicochemical.
A short description of data set [11]: Cytotoxicity against human HK-2 cells assessed as cell growth inhibition incubated for 24 hrs by WST-1 reagent microplate reader assay. It is filed as toxicity, cell-based. For orientation: Tetrazolium dyes change colour on reduction, which living cells bring about.
Data set [12] is described as follows: Clearance in Sprague-Dawley rat at 3 mg/kg,iv administration measured upto 24 hr by LC-MS/MS analysis. Format: ADME, organism-based. The settings on record: in vivo.
Data set [13] is described as follows: AUClast in CD1 mouse at 1 mg/kg,iv administration measured upto 1 hr by LC-MS/MS analysis. The note with it: in vivo. Details: time < 1 hrs, dose 1 mg/kg, route iv. Format: ADME, organism-based.
Data set [14] is described as follows: Toxicity in female Sprague-Dawley rat assessed as no observed adverse effect level at iv administration and observed on day 14. It is filed as organism-based. The settings on record: in vivo, time 14 day.
A short description of data set [15]: Toxicity in male Sprague-Dawley rat assessed as reduction in body weight at 60 mg/kg,iv administration observed on day 14 relative to control. Format: organism-based. More on the design: scale not given: the % may be the effect or the level left. The note with it: in vivo, 336 h, time 14 day.
Data set [16] has as its system Klebsiella pneumoniae. In words: Antibacterial activity against Klebsiella pneumoniae ATCC 700603 assessed as inhibition of bacterial growth incubated for 18 hrs in presence of rifampicin with calcium and Mg2+ broth media by two fold serial dilution assay. It is filed as functional, organism-based.
Data set [17] is described as follows: AUClast in CD1 mouse at 10 mg/kg,iv administration measured upto 1 hr by LC-MS/MS analysis. More on the design: time < 1 hrs, dose 10 mg/kg, route iv. The note with it: in vivo. It is filed as ADME, organism-based.
The test system of data set [18] is Escherichia coli. Put plainly: Antibacterial activity against Escherichia coli ATCC 25922 assessed as inhibition of bacterial growth incubated for 18 hrs in presence of rifampicin with calcium and Mg2+ broth media by two fold serial dilution assay. It is filed as functional, organism-based.
Data set [19] relates to Acinetobacter baumannii. Put plainly: Antibacterial activity against Acinetobacter baumannii ATCC 17978 assessed as inhibition of bacterial growth incubated for 18 hrs in presence of rifampicin with calcium and Mg2+ broth media by two fold serial dilution assay. It is filed as functional, organism-based.
Data set [20] is described as follows: AUClast in CD1 mouse at 3 mg/kg,iv administration measured upto 1 hr by LC-MS/MS analysis. The note with it: in vivo. Details: dose 3 mg/kg, time < 1 hrs, route iv. Format: ADME, organism-based.
The test system of data set [21] is Escherichia coli. Put plainly: Potentiation of rifampicin induced antibacterial activity against NDM1-producing carbapenem-resistant Escherichia coli infected CD1 mouse sepsis model assessed as reduction in bacterial colony forming unit in lung tissue at 25 mg/kg,SC administrated after 2 hrs of post-infection in presence of rifampicin. Format: functional, organism-based.

Data set [22] can be described thus: Toxicity in male Sprague-Dawley rat assessed as reduction in body weight at 20 mg/kg,iv administration observed on day 14. Format: organism-based. The note with it: in vivo, 336 h, time 14 day.
Data set [23] is described as follows: Toxicity in female Sprague-Dawley rat assessed as reduction in body weight at 20 to 60 mg/kg,iv administration observed on day 4. Format: organism-based. The settings on record: in vivo, 96 h, dose 20-60 mg/kg, time 4 day.
In data set [24] the test system is Klebsiella pneumoniae. In words: Antibacterial activity against Klebsiella pneumoniae ATCC 700603 assessed as inhibition of bacterial growth incubated for 18 hrs by two fold serial dilution assay. It is filed as functional.
Data set [25] can be described thus: Clearance in CD1 mouse at 1 mg/kg,iv administration measured upto 1 hr by LC-MS/MS analysis. It is filed as ADME, organism-based. The settings on record: in vivo.
A short description of data set [26]: Nephrotoxicity in Sprague-Dawley rat assessed as […] in creatinine level at 30 mg/kg,iv administration for 1 hr and measured after 25 hrs. The note with it: in vivo, 26 h. It is filed as toxicity, organism-based.
In data set [27] the test system is Acinetobacter baumannii. In words: Antibacterial activity against Acinetobacter baumannii ATCC 17978 assessed as inhibition of bacterial growth incubated for 18 hrs by two fold serial dilution assay. It is filed as functional.
Data set [28] is described as follows: Nephrotoxicity in Sprague-Dawley rat assessed as increase in blood urea nitrogen level at 30 mg/kg,iv administration for 1 hr and measured after 25 hrs. Format: toxicity, organism-based. The note with it: in vivo, 26 h.
The nature of data set [29]: Toxicity in female Sprague-Dawley rat assessed as reduction in body weight at 20 to 60 mg/kg,iv administration observed on day 2. The settings on record: in vivo, 48 h, dose 20-60 mg/kg, time 2 day. Format: organism-based.
Data set [30] is described as follows: Hemolytic activity in human blood assessed as hemolysis incubated for 6 hrs by microplate reader analysis. Format: toxicity, tissue-based.
A short description of data set [31]: Toxicity in male Sprague-Dawley rat assessed as reduction in body weight at 20 mg/kg,iv administration and observed on day 2. Format: organism-based. The settings on record: in vivo, 48 h, time 2 day.
Data set [32] deals with Escherichia coli. Put plainly: Potentiation of rifampicin induced antibacterial activity against NDM1-producing carbapenem-resistant Escherichia coli infected CD1 mouse sepsis model assessed as reduction in bacterial colony forming unit in lung tissue at 25 mg/kg,SC administrated after 6 hrs of post-infection in presence of rifampicin. Format: functional, organism-based.

The subject of data set [33] is Escherichia coli. Put plainly: Potentiation of rifampicin induced antibacterial activity against NDM1-producing carbapenem-resistant Escherichia coli infected CD1 mouse sepsis model assessed as reduction in bacterial colony forming unit in blood at 25 mg/kg,SC administrated after 2 hrs of post-infection in presence of rifampicin. Format: functional.
The test system of data set [34] is Escherichia coli. In words: Potentiation of rifampicin induced antibacterial activity against NDM1-producing carbapenem-resistant Escherichia coli infected CD1 mouse sepsis model assessed as reduction in bacterial colony forming unit in blood at 25 mg/kg,SC administrated after 6 hrs of post-infection in presence of rifampicin. It is filed as functional.
A short description of data set [35]: Drug localization in Acinetobacter baumannii ATCC 17978 assessed as increase in fluorescence at cytosol at 5 uM incubated for 30 mins by confocal laser scanning microscopy. Format: ADME, subcellular. The settings on record: 0.5 h.
The nature of data set [36]: Drug localization in Escherichia coli ATCC 25922 assessed as increase in fluorescence at membrane at […] by fluorescence-activated cell sorting analysis. Format: ADME, cell membranes. The note with it: dose 0.13 µM.
The subject of data set [37] is Cell membrane. In words: Induction of outer membrane disruption in Acinetobacter baumannii ATCC 17978 at 5 uM incubated for 30 mins by confocal laser scanning microscopy. Format: subcellular.
A short description of data set [38]: Drug localization in Escherichia coli ATCC 25922 assessed as increase in fluorescence at membrane at […] incubated for 30 mins by confocal laser scanning microscopy. Format: ADME, cell membranes. The settings on record: 0.5 h, dose 0.63 µM.

Values after ≈ are worked out from the molar mass of the structure shown. Active and inactive are the calls of the source. The rule behind the calls is not given here. Residues, ends and D or L forms follow the SMILES beside them. *: point of attachment. X1 = CN(C)c1ccc2c(-c3ccc(C(=O)*)cc3C(=O)[O-])c3ccc(N(C)C)cc3[o+]c2c1; Octanoyl = CCCCCCCC(=O)* A value given as a limit tells only on which side of the number the result lay.

As usually defined, the MIC is the lowest concentration that inhibits growth of the organism. A word on the NOAEL: it is the highest tested level that showed no adverse finding. For orientation: clearance means the rate of elimination divided by the concentration. As a reminder, the Vd is a proportionality between amount in the body and measured concentration, not a real space. The term IC50 denotes the concentration that inhibits the measured activity by half. On to `CCCCCCCC(=O)N[C@@H](CCCCN)C(=O)N[C@@H](CCCCN)C(=O)N[C@@H](C)C(=O)N[C@@H](CC(C)C)C(=O)N[C@@H](CCCCN)C(=O)N[C@@H](CC(C)C)C(=O)N[C@@H](C)C(=O)N[C@@H](CCCCN)C(=O)N[C@@H](CCCCN)C(=O)N1CCC[C@H]1C(=O)N[C@@H](CC(C)C)C(=O)N[C@@H](CCCCN)C(=O)N[C@@H](CC(C)C)C(=O)N[C@@H](CC(C)C)C(=O)N[C@@H](CCCCN)C(N)=O` (HELM PEPTIDE1{[CCCCCCCC(=O)[*:2]].K.K.A.L.K.L.A.K.K.P.L.K.L.L.K.[am]}$$$$V2.0), for which the MIC in the data set on Escherichia coli [1] was greater than 80 µM; in the data set with Klebsiella pneumoniae [24], greater than 80 µM; with Acinetobacter baumannii [27], 20 µM (≈ 36.9 µg/mL). Moreover, the Activity in data set [2] was 9%; in data set [15], 9%; in data set [22], “Non-Toxic”; in data set [23] it was “Non-Toxic”; in data set [26] it was 0.28 mg/dL; in data set [28], 19 mg/dL. Besides, the Activity result is “Toxic” in data set [29], “Toxic” in data set [31], greater than 4 log10CFU in the data set with Escherichia coli [33] and greater than 4 log10CFU with Escherichia coli [34]. Moreover, the “fold change (FC)” value with Escherichia coli [3] and in the data set on Cell membrane [8] was 10 throughout. For the same molecule, the AUClast in data set [4] came to 246 ng·h/mL; in [13] it was 88.9 ng·h/mL; in data set [17] it was 941 ng·h/mL; in [20], 263 ng·h/mL. Besides, the values for the NOAEL at 336 h in data set [5] and in [14] were 20 mg/kg and 60 mg/kg, respectively. In addition, the clearance in data set [6] was 182 mL/min/kg; in data set [9], 190 mL/min/kg; in data set [12], 192 mL/min/kg; in data set [25], 218 mL/min/kg. Moreover, in [7], the volume of distribution (Vd) stood at 3.07 L/kg. Further, the Retention_time in [10] is on record as 18.1 min. The IC50 at 24 h in [11] turned out to be 86.9 µM. Further, the outcome with Klebsiella pneumoniae [16], with Escherichia coli [18] and with Acinetobacter baumannii [19] was inactive. Also, the result in the data set with Escherichia coli [21] and in the data set with Escherichia coli [32] was Active. Moreover, in data set [30], the MHC10 was greater than 160 µM.
`CCCCCCCC(=O)N[C@@H](CCCCNC(=O)c1ccc(-c2c3ccc(N(C)C)cc3[o+]c3cc(N(C)C)ccc23)c(C(=O)[O-])c1)C(=O)N[C@@H](CCCCN)C(=O)N[C@@H](C)C(=O)N[C@@H](CC(C)C)C(=O)N[C@@H](CCCCN)C(=O)N[C@@H](CC(C)C)C(=O)N[C@@H](C)C(=O)N[C@@H](CCCCN)C(=O)N[C@@H](CCCCN)C(=O)N1CCC[C@H]1C(=O)N[C@@H](CC(C)C)C(=O)N[C@@H](CCCCN)C(=O)N[C@@H](CC(C)C)C(=O)N[C@@H](CC(C)C)C(=O)N[C@@H](CCCCN)C(N)=O` (Octanoyl-K(X1)KALKLAKKPLKLLK-NH2): the Drug uptake result in data set [35], in [36] and in data set [38] was “Active” each time. The outcome in the data set with Cell membrane [37] was Active.
